Values after ≈ are worked out from the molar mass of the structure shown. Where two headings read alike, the source gives them in different places. Square brackets hold non-standard residues; d marks the D form. Peptide text beside a SMILES is read from it. Hica(2S) = CC(C)C[C@H](O)C(=O)O; dHica = CC(C)C[C@@H](O)C(=O)O; βAla = NCCC(=O)O
What was measured:
Type in all cases: cell-based
Saccharomyces cerevisiae [1] = assay: Antimicrobial activity assay (MIC80, OD600), S. cerevisiae; settings: LB broth, 128-4 μg/mL, 37 °C, 24 h
Procedure: (§1) Strains of S. aureus and S. cerevisiae were used for the antimicrobial activity assay, and compounds 1–7 were evaluated as described. We resuscitated the bacteria and centrifuge them at 8000 rpm for 5 min at 4 °C; we then washed the precipitate twice with PBS. We diluted it with Luria-Bertani (LB) broth medium to the concentration of 5 × 10^5 CFU/mL. Strains were grown to OD600 = 0.3 in LB broth medium and diluted 400-fold. Aliquots (200 μL) of the diluted suspensions were placed into 96-well microtiter plates with isolated compounds at concentrations of 128, 64, 32, 16, 8, and 4 μg/mL and cultured at 37 °C for 24 h. Furazolidone was the positive control and DMSO was used as the negative control. The OD600 values were used to test the antimicrobial rate for MIC80.

Staphylococcus aureus [2] = assay: Antimicrobial activity assay (MIC80, OD600), S. aureus; settings: LB broth, 128-4 μg/mL, 37 °C, 24 h; for MIC80 against S. aureus: 96-well plate
Procedure: as §1

[3] = test system: A549 human lung adenocarcinoma cell line; assay: MTT cytotoxicity assay, A549; settings: A549 cells, 72 h treatment, absorbance 562 nm (reference 630 nm), read-out: IC50 Values, cytotoxicity against A549
Procedure: (§2) The cytotoxicity of the compound against A549 and NCI-1944 lines was determined by using 3-(4,5-dimethyl-2-thiazolyl)-2,5-diphenyl-2-H-tetrazolium bromide (MTT). The cells were maintained in DMEM containing 10% (v/v) fetal bovine serum (FBS) and 0.4% (v/v) penicillin−streptomycin solution (10,000 units/mL penicillin and 10,000 μg/mL streptomycin, 100X) at 37 °C under 5% CO2. After 24 h of adherent cell growth, different concentrations of the compounds, positive control adriamycin (ADM), and blank control (methanol) were added to 96-well plates. After 72 h, 20 μL of MTT solution was added. The absorbance value (detection wavelength is 562 nm and reference wavelength is 630 nm) was measured on the microplate reader, and the IC50 value of each compound was calculated.

[4] = test system: NCI-H1944 human lung adenocarcinoma cell line; assay: MTT cytotoxicity assay, NCI-H1944; settings: NCI-H1944 cells, 72 h treatment, absorbance 562 nm (reference 630 nm), read-out: IC50 Values, cytotoxicity against NCI-H1944
Procedure: as §2

Staphylococcus aureus [5] = assay: Growth time-OD600 curve at MIC80, S. aureus; settings: compound at its MIC80 concentration, OD600 at 8-32 h, 37 °C, n = 3
Procedure: (§3) The strain was grown to OD600 = 0.3 in LB broth medium and diluted 100-fold. Aliquots (200 μL) of the diluted suspensions were placed into 96-well microtiter plates, and compounds 1 and 4 at the concentration of MIC80 were cultured in the plate at 37 °C. The absorbance value was measured at OD600 at 8 h, 12 h, 16 h, 20 h, 24 h, and 32 h.

Saccharomyces cerevisiae [6] = assay: Growth time-OD600 curve at MIC80, S. cerevisiae; settings: compound at its MIC80 concentration, OD600 at 8-32 h, 37 °C, n = 3
Procedure: as §3

CC[C@H](C)[C@@H]1NC(=O)[C@H](CC(C)C)NC(=O)[C@H](CC(C)C)NC(=O)CCNC(=O)[C@@H](CC(C)C)OC1=O [Compound 2, avenamide B] (cyclo([dHica][βAla]LLI))
antimicrobial activity against S. cerevisiae (in words) (Saccharomyces cerevisiae [1]): did not display strong antimicrobial activity
antimicrobial activity against S. aureus (in words) (Staphylococcus aureus [2]): did not display strong antimicrobial activity

COc1cccc2c1C(=O)c1c(O)c3c(c(O)c1C2=O)C[C@@](O)(C(=O)CO)C[C@@H]3O[C@H]1C[C@H](N)[C@H](O)[C@H](C)O1 [adriamycin, reference compound]
IC50 ([3]; Homo sapiens): 4.26 ± 0.17 µM
IC50 ([4]; Homo sapiens): 4.35 ± 0.27 µM

CC[C@H](C)[C@H]1OC(=O)[C@H](C(C)C)N(C)C(=O)[C@@H](C(C)C)OC(=O)[C@H](C(C)C)N(C)C(=O)[C@@H](C(C)C)OC(=O)[C@H](C(C)C)N(C)C1=O [Compound 4, enniatin H]
antimicrobial activity against S. cerevisiae (in words) (Saccharomyces cerevisiae [1]): did not display strong antimicrobial activity
antimicrobial activity against S. aureus (in words) (Staphylococcus aureus [2]): did not display strong antimicrobial activity

CC[C@H](C)[C@@H]1NC(=O)[C@H](CC(C)C)NC(=O)[C@H](CC(C)C)NC(=O)[C@H](CC(C)C)NC(=O)[C@H](CC(C)C)NC1=O [Compound 6, cyclo-(L-Ile-L-Leu-L-Leu-L-Leu-L-Leu)] (cyclo(ILLLL))
IC50 [3]: < 50 µM
IC50 [4]: < 50 µM

CC(C)[C@H]1C(=O)O[C@H](C(C)C)C(=O)N(C)[C@@H](C(C)C)C(=O)O[C@H](C(C)C)C(=O)N(C)[C@@H](C(C)C)C(=O)O[C@H](C(C)C)C(=O)N1C [Compound 3, enniatin B]
growth time curve of S. aureus (in words) (Staphylococcus aureus [5]): exhibited antimicrobial activity against both strains during the measuring time
MIC80 against S. cerevisiae (Saccharomyces cerevisiae [1]; 96-well plate): 16.92 µg/mL (≈ 26.4 µM)
growth time curve of S. cerevisiae (in words) (Saccharomyces cerevisiae [6]): exhibited antimicrobial activity against both strains during the measuring time
MIC80 against S. aureus (Staphylococcus aureus [2]): 11.08 µg/mL (≈ 17.3 µM)

CC(C)C[C@@H]1NC(=O)[C@H](CC(C)C)NC(=O)[C@H](C(C)C)NC(=O)[C@H](CC(C)C)NC(=O)[C@@H](CC(C)C)NC1=O [Compound 5, cyclo-(L-Leu-L-Leu-D-Leu-L-Leu-L-Val)] (cyclo(LL[dL]LV))
IC50 [3]: < 50 µM
IC50 [4]: < 50 µM

CC(C)C[C@@H]1OC(=O)[C@H](Cc2ccccc2)NC(=O)[C@H](Cc2ccccc2)NC(=O)[C@H](Cc2ccccc2)NC(=O)[C@H](Cc2ccc(O)cc2)NC1=O [Compound 1, avenamide A] (cyclo([Hica(2S)]YFFF))
growth time curve of S. aureus (in words) (Staphylococcus aureus [5]): exhibited antimicrobial activity against both strains during the measuring time
growth time curve of S. cerevisiae (in words) (Saccharomyces cerevisiae [6]): exhibited antimicrobial activity against both strains during the measuring time
MIC80 against S. aureus (Staphylococcus aureus [2]): 20.25 µg/mL (≈ 28.2 µM)

From PMC11643578, “Cytotoxic and Antibacterial Cyclodepsipeptides from an Endophytic Fungus Fusarium avenaceum W8” (Molecules, 2024)
